Assay results: patent US20230219939A1, “N-(1-CYANO-PYRROLIDIN-3-YL)-5-(3-(TRIFLUOROMETHYL)PHENYL)OXAZOLE-2-CARBOXAMIDE DERIVATIVES AND THE CORRESPONDING OXADIAZOLE DERIVATIVES AS USP30 INHIBITORS FOR THE TREATMENT OF MITOCHONDRIAL DYSFUNCTION” (MISSION THERAPEUTICS LIMITED, priority 2020, published 2023)
Values joined by “and” are separate entries in the source; they are usually repeats but may differ in a detail not shown here. Equal values may be shown once. Read-outs that look alike come from different tables or passages of the source.

What was measured:
USP30 = target: T1, USP30 (Homo sapiens, UniProt Q70CQ3); assay: USP30 biochemical IC50 assay (fluorescence polarisation)
T1 construct: purchased Boston Biochem E582
T1 sequence (Q70CQ3 57-517 limits assumed): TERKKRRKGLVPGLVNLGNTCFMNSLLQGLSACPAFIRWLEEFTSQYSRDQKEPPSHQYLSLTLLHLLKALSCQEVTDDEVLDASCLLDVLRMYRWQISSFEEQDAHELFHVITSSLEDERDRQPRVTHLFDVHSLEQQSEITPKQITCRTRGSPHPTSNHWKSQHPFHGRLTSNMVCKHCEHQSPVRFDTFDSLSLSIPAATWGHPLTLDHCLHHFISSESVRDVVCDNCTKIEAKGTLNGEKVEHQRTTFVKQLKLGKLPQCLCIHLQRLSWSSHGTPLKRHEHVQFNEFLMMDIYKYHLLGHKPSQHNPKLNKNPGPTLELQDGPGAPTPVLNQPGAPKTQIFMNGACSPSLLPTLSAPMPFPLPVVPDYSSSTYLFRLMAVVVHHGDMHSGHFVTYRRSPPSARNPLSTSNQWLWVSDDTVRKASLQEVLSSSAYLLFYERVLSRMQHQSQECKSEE
Experimental: Dilution plates were prepared at 21 times the final concentration (2100 μM for a final concentration of 100 μM) in 50% DMSO in a 96-well polypropylene V-bottom plate (Greiner #651201). A typical 8-point dilution series would be 100, 30, 10, 3, 1, 0.3, 0.1, 0.03 μM final. Reactions were performed in duplicate in black 384 well plates (small volume, Greiner 784076) in a final reaction volume of 21 μl. Either 1 μl of 50% DMSO or diluted compound was added to the plate. USP30 (Boston Biochem #E582) was diluted in reaction buffer (40 mM Tris, pH 7.5, 0.005% Tween 20, 0.5 mg/ml BSA, 5 mM beta-mercaptoethanol) to achieve a final assay concentration of 4 nM, and 10 μl of diluted USP30 was added to the compound. Enzyme and compound were incubated for 30 min at room temp. Reactions were initiated by the addition of 50 nM of TAMRA labelled peptide linked to ubiquitin via an iso-peptide bond as fluorescence polarisation substrate. Reactions were read immediately after addition of substrate and following a 2-hour incubation at room temperature. Readings were performed on a Pherastar Plus (BMG Labtech). λ Excitation 540 nm; λ Emission 590 nm.

UCHL1 = target: T2, UCHL1 (Homo sapiens, UniProt P09936); assay: UCHL1 DUB IC50; format: biochemical
T2 sequence (P09936 1-223): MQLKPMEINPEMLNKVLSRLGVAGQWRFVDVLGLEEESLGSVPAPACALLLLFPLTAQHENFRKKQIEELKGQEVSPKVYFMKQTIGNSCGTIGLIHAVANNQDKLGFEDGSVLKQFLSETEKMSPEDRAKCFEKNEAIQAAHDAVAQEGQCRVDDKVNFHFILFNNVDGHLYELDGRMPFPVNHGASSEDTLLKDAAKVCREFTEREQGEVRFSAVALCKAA

[1] = tested on: USP2, USP6, USP10, USP16, USP21, USP22, USP25, USP28; assay: DUB selectivity panel IC50; format: biochemical
Cathepsin B = Cathepsin B (Homo sapiens, UniProt P07858); assay: Cathepsin B IC50; format: biochemical
Cathepsin L = Cathepsin L (Homo sapiens, UniProt P07711); assay: Cathepsin L IC50; format: biochemical
Cathepsin V = Cathepsin V (Homo sapiens, UniProt O60911); assay: Cathepsin V IC50; format: biochemical
Cathepsins B, K, L, S, V = assay: Cathepsin panel IC50 (summary over B, K, L, S, V); format: biochemical; settings: for IC50: range over the five cathepsins
mouse hepatocytes = assay: Hepatocyte Cl mouse; format: in vitro ADME
Experimental: Hep Cl mouse: in vitro hepatocyte clearance in mouse cells.
Clu: in vitro clearance. Clu as defined here is the scaled clearance, in turn calculated from the intrinsic clearance. The intrinsic clearance is the predicted clearance due to hepatic metabolic reactions, determined from incubation of a compound in a hepatocyte preparation.

Mouse plasma stability = format: in vitro ADME; settings: mouse plasma; read-out: Stability Mouse plasma t1/2
Cathepsin K = target: T3, Cathepsin K (Homo sapiens, UniProt P43235); assay: Cathepsin K IC50; format: biochemical
T3 sequence (P43235 115-329): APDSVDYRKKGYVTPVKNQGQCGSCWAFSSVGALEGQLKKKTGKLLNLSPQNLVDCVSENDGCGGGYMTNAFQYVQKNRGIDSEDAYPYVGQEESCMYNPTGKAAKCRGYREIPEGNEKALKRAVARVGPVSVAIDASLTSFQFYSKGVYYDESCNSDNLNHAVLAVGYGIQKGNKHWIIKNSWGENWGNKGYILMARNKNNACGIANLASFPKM

Cathepsin S = Cathepsin S (Homo sapiens, UniProt P25774); assay: Cathepsin S IC50; format: biochemical
[2] = USP30 biochemical IC50 assay, read-out: USP30 IC50
[3] = read-out: Cathepsin IC50 (μM) Cathepsin U
[4] = read-out: Cathepsin IC50 (μM) B, K, U, S, V
[5] = range over the eight DUBs, read-out: DUB IC50 (μM) USP2, USP6, USP10, USP16, USP21, USP22, USP25, USP28
[6] = read-out: Cathepsin IC50 (μM) Cathepsin L
[7] = read-out: Cathepsin IC50 (μM) B, K, L, S, V

Sequence of Cathepsin L (P07711 114-333, species assumed): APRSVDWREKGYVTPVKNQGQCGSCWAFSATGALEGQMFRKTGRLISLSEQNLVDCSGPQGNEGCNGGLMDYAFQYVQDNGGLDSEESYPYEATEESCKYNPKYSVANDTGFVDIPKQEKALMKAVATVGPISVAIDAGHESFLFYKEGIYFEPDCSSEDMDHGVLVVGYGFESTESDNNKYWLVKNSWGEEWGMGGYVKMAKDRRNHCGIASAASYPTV
Sequence of Cathepsin V (O60911 114-334, species assumed): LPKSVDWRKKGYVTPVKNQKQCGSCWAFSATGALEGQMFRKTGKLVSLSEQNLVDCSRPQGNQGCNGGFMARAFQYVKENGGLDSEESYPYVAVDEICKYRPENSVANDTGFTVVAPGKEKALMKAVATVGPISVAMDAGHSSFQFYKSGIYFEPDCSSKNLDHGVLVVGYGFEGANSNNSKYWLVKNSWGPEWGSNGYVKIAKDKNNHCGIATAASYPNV
Sequence of Cathepsin S (P25774 115-331, species assumed): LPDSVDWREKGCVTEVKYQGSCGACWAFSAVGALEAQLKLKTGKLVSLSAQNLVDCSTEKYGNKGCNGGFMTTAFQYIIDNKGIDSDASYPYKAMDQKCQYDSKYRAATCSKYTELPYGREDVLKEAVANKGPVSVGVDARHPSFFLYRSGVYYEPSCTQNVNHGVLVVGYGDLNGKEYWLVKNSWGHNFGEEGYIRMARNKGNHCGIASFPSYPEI

Structure (SMILES) | IC50 (USP30; [2]) [µM] | IC50 (USP30; read-out: DUB IC50 (μM) USP30) | IC50 (UCHL1) [µM] | IC50 (Cathepsin B) [µM] | IC50 (Cathepsin V) [µM] | IC50 [1, 5] [µM] | further results
C[C@@H]1C[C@@H](NC(=O)c2nnc(-c3cccc(C(F)(F)F)c3)o2)CN1C#N [Example 7, N-((3R,5R)-1-Cyano-5-methylpyrrolidin-3-yl)-5-(3-(trifluoromethyl)phenyl)-1,3,4-oxadiazole-2-carboxamide] | 0.033 | 0.004 to 0.033 µM | > 300 |  |  |  | 
N#CN1CC[C@@H](NC(=O)c2cc(-c3ccc(C(F)(F)F)cc3)no2)C1 [Reference Example A, reference compound] | 0.12 | 0.12 µM |  | 0.85 | 7.2 |  | IC50 ([1]; range over seven DUBs, exc. USP6, read-out: DUB IC50 (μM) USP2, USP6, USP10, USP16, USP21, USP22, USP25, USP28 (exc. USP6)): 0.81 to 3 µM; IC50 (Cathepsin L; [3]): 2.1 µM; IC50 (Cathepsins B, K, L, S, V; [4]): ≥ 0.73 µM; Hepatocyte Cl mouse Scaled Clu (mouse hepatocytes): 118 mL/min/kg; half-life (Mouse plasma stability): > 120 min
N#CN1CC[C@H](C(=O)Nc2ncc(-c3ccccc3)s2)C1 [C, reference compound] |  |  |  |  |  |  | fold more potent against USP30 than UCHL1 (UCHL1): 0.8 fold
CC1CC(C(=O)Nc2ncc(-c3ccccc3)s2)CN1C#N (stereo not drawn) [Reference Example D, reference compound] |  |  |  |  |  |  | fold more potent against USP30 than UCHL1 (UCHL1): 1.5 fold
COC[C@@H]1C[C@@H](NC(=O)c2nnc(-c3cc(C(F)(F)F)ccc3OC3CC3)o2)CN1C#N [Example 5, N-((3R,5S)-1-Cyano-5-(methoxymethyl)pyrrolidin-3-yl)-5-(2-cyclopropoxy-5-(trifluoromethyl)phenyl)-1,3,4-oxadiazole-2-carboxamide] | 0.041 |  |  |  |  |  | 
COC[C@@H]1C[C@@H](NC(=O)c2nnc(-c3cccc(C(F)(F)F)c3)o2)CN1C#N [Example 8, N-((3R,5S)-1-Cyano-5-(methoxymethyl)pyrrolidin-3-yl)-5-(3-(trifluoromethyl)phenyl)-1,3,4-oxadiazole-2-carboxamide] | 0.038 | 0.038 µM and 0.004 to 0.033 µM | > 300 | 116 | > 30 | 4.6 to 78.9 | IC50 (Cathepsin L; [6]): > 30 µM
C[C@@H]1C[C@@H](NC(=O)c2nnc(-c3cc(C(F)(F)F)ccc3OC3CC3)o2)CN1C#N [Example 6, N-((3R,5R)-1-Cyano-5-methylpyrrolidin-3-yl)-5-(2-cyclopropoxy-5-(trifluoromethyl)phenyl)-1,3,4-oxadiazole-2-carboxamide] | 0.073 |  |  |  |  |  | 
N#CN1CC[C@H](C(=O)Nc2cn(-c3cccc(C(F)(F)F)c3)cn2)C1 [Reference Example B, reference compound] | 0.3 | 0.3 µM | 0.15 | 4.6 | 2.5 | 3.8 to 59.7 | DUB selectivity preference for USP30 v 7/8 DUBs ([1]; Ref. Ex. A 7 DUBs (exc. USP6), Ref. Ex. B 8 DUBs): 12.7-199; minimum fold more potent against USP30 than against each of the eight DUBs ([1]; USP2, USP6, USP10, USP16, USP21, USP22, USP25, USP28, 'A' not tested against USP6): 12.7 fold; DUB selectivity preference for USP30 v UCHL1 (UCHL1): 0.5; fold more potent against USP30 than UCHL1 (UCHL1): 0.5 fold; IC50 (Cathepsin K): 0.91 µM; fold more potent against USP30 than against cathepsin K (Cathepsin K): 3 fold; IC50 (Cathepsin L; [3]): 1.1 µM; IC50 (Cathepsin S): 6.4 µM; Selectivity preference for USP30 v cathepsins (Cathepsins B, K, L, S, V): 3.0-21; IC50 (Cathepsins B, K, L, S, V; [4]): 0.91 to 6.4 µM; Hepatocyte Cl mouse Scaled Clu (mouse hepatocytes): >121 mL/min/kg; half-life (Mouse plasma stability): 10.4 min
COC[C@@H]1C[C@@H](NC(=O)c2nnc(-c3cc(C(F)(F)F)ccc3OC)o2)CN1C#N [Example 10, N-((3R,5S)-1-Cyano-5-(methoxymethyl)pyrrolidin-3-yl)-5-(2-methoxy-5-(trifluoromethyl)phenyl)-1,3,4-oxadiazole-2-carboxamide] | 0.041 |  |  |  |  |  | 
COC[C@@H]1C[C@@H](NC(=O)c2nnc(-c3cc(C(F)(F)F)ccc3Cl)o2)CN1C#N [Example 11, 5-(2-Chloro-5-(trifluoromethyl)phenyl)-N-((3R,5S)-1-cyano-5-(methoxymethyl)pyrrolidin-3-yl)-1,3,4-oxadiazole-2-carboxamide] | 0.022 | 0.004 to 0.033 µM | > 300 |  |  |  | 

Further lines, with some results ahead:

IC50 (USP30; [2]) [µM] | IC50 (USP30; read-out: DUB IC50 (μM) USP30) | IC50 (UCHL1) [µM] | IC50 (Cathepsin B) [µM] | IC50 (Cathepsin V) [µM] | IC50 [1, 5] [µM] | Structure (SMILES) | further results
0.003 |  |  |  |  |  | CS(=O)(=O)C[C@@H]1C[C@@H](NC(=O)c2ncc(-c3cccc(C(F)(F)F)c3)o2)CN1C#N [Example 3, N-((3R,5S)-1-Cyano-5-((methylsulfonyl)methyl)pyrrolidin-3-yl)-5-(3-(trifluoromethyl)phenyl)-oxazole-2-carboxamide] | 
0.008 | 0.008 µM | 280 | 79 | 56 | 17.2 to 108 | C[C@@H]1C[C@@H](NC(=O)c2ncc(-c3cccc(C(F)(F)F)c3)o2)CN1C#N [Example 2, N-((3R,5R)-1-cyano-5-methylpyrrolidin-3-yl)-5-(3-(trifluoromethyl)phenyl)oxazole-2-carboxamide] | IC50 (Cathepsin L; [6]): 7.9 µM
0.004 |  |  |  |  |  | N#CN1C[C@H](NC(=O)c2ncc(-c3cccc(C(F)(F)F)c3)o2)C[C@H]1Cn1ccnn1 [Example 4, N-((3R,5S)-5-((1H-1,2,3-Triazol-1-yl)methyl)-1-cyanopyrrolidin-3-yl)-5-(3-(trifluoromethyl)phenyl) oxazole-2-carboxamide] | 
0.015 | 0.015 µM | 149 | > 300 | > 30 | > 300 | COC[C@H]1C[C@@H](NC(=O)c2ncc(-c3cccc(C(F)(F)F)c3)o2)CN1C#N [Example 12, N-((3R,5R)-1-Cyano-5-(methoxymethyl)pyrrolidin-3-yl)-5-(3-(trifluoromethyl)phenyl)oxazole-2-carboxamide] | DUB selectivity preference for USP30 v 8 DUBs [1]: >20000; DUB selectivity preference for USP30 v UCHL1 (UCHL1): 9933; IC50 (Cathepsin K): > 30 µM; IC50 (Cathepsin L; [6]): > 30 µM; IC50 (Cathepsin S): > 30 µM; Selectivity preference for USP30 v cathepsins (Cathepsins B, K, L, S, V): >2000; IC50 (Cathepsins B, K, L, S, V; [7]): > 30 µM
0.004 | 0.004 µM and 0.004 to 0.033 µM | > 300 | > 300 | 101 | 2.9 to 135 | COC[C@@H]1C[C@@H](NC(=O)c2ncc(-c3cc(C(F)(F)F)ccc3OC3CC3)o2)CN1C#N [Example 9, N-((3R,5S)-1-cyano-5-(methoxymethyl)pyrrolidin-3-yl)-5-(2-cyclopropoxy-5-(trifluoromethyl)phenyl)-oxazole-2-carboxamide] | IC50 (Cathepsin L; [6]): 18.2 µM; IC50 (Cathepsins B, K, L, S, V; [7]): ≥ 9.9 µM
